In patent US20230271954A1 (Gossamer Bio Services, Inc., priority 2020, published 2023):

How the values were obtained:
DGKζ = molecular target: T1, DGKζ (Homo sapiens, UniProt Q13574); test: DGKζ biochemical assay (ADP-Glo); details: read-out: DGK ζ IC50
T1 construct: purchased Carna 12-110
Method: (§1) Compounds of the present invention were prepared into 10 mM DMSO solution and 10 nL of stock was transferred into 384 plates (Optiplate 384 plate) using Echo550. DMSO was used as high control, and ATP substrate buffer was used as a low control. A 1× enzyme assay buffer was prepared (Hepes, pH 7.0 25 mM, BSA 0.05%, Triton-X100 0.002%, CaCl2) 1 μM, MgCl2 10 mM, DTT 2 mM). […] OAG (1-oleoyl-2-acetyl-sn-glycerol, 25 mg/ml, Avanti 8001000) and PS (10 mg/ml, Avanti 840032P) were mixed at the ratio of 1:2. A 1× substrate solution was prepared with 1× assay buffer by 100-fold dilution. The substrate solution was sonicated on ice for 1 min. The pure ATP was added to the substrate solution (DGKα:400 μM). 5 μL of the enzyme solution were added to the 384 well plate, and the plate was spun for 1 min at 1000 rpm and incubated for 30 mins at RT. 5 μL of 1× substrate solution were added to the 384 well plate, the plate was spun and then incubated for 45 mins at RT. 10 μL ADP-Glo […] was added to stop the assay. After 60 mins at RT, 20 μL ADP-Glo Detection buffer was added as the final step. Plate was read after 45 min incubation at RT.
(§2) Data analysis was performed by calculating the […] using following the formula:
(§3) [formula] • High control (Hc): DMSO/DGKα(DGKζ)/Substrate/ATP/ADP-Glo • Low Control (Lc): ATP/ADP-Glo

DGKα = DGKα (Homo sapiens, UniProt P23743); test: DGKα biochemical assay (ADP-Glo); details: read-out: DGK α IC50
DGKα, sequence (P23743 whole entry): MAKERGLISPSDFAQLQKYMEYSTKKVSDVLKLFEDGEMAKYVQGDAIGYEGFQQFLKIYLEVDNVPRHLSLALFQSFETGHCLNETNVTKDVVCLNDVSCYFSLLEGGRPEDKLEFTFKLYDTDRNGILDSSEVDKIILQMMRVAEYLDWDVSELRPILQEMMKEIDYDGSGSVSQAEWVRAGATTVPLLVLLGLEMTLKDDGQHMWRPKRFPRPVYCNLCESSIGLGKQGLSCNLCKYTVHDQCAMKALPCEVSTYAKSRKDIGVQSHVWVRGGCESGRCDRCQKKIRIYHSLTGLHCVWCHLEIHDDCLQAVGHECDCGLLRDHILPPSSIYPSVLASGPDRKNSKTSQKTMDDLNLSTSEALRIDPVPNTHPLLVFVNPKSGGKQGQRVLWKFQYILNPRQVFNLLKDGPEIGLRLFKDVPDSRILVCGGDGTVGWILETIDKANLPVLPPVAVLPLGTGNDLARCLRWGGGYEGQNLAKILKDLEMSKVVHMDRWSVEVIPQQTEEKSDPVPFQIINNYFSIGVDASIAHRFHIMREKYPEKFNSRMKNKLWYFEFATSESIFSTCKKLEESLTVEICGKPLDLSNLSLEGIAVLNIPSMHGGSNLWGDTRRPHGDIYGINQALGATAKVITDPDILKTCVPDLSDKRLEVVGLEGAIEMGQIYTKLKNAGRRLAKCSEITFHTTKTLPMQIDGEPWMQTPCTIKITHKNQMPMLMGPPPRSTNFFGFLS
Method: as §1, §2, §3

T1 sequence (Q13574 1-929 isoform Q13574-4): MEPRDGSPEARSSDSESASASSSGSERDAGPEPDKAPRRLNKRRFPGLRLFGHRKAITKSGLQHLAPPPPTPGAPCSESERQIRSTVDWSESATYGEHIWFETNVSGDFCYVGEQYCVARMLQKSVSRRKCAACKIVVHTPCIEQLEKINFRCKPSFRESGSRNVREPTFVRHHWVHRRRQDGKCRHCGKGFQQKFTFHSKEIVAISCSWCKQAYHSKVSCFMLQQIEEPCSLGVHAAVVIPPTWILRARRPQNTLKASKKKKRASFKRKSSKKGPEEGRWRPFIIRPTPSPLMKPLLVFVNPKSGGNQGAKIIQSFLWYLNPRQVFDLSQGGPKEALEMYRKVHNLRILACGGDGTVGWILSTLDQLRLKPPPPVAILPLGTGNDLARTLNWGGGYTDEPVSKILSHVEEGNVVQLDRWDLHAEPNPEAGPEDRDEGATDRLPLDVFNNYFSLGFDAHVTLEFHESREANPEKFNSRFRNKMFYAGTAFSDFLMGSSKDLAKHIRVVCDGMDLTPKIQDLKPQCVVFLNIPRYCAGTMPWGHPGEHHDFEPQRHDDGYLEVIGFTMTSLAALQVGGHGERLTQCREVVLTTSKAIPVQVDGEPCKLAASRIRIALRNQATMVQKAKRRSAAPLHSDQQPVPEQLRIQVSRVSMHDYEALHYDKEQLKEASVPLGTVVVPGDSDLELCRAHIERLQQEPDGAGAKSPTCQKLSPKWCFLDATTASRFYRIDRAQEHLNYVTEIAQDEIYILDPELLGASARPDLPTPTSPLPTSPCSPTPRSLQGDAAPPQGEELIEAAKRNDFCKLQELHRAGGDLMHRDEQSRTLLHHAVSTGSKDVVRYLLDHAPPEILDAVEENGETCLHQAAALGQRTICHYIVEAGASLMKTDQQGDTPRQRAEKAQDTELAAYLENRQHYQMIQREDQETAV

For `Cn1c(=O)cc(N(C)[C@H]2CC[C@H](N(CC3COC3)c3ccc(F)cc3O)CC2)c2nc(C#N)ccc21` [Example 3BB, trans-8-((4-((4-fluoro-2-hydroxyphenyl)(oxetan-3-ylmethyl)amino)cyclohexyl)(methyl)amino)-5-methyl-6-oxo-5,6-dihydro-1,5-naphthyridine-2-carbonitrile], the IC50 (DGKζ) was no less than 1000 nM and the IC50 (DGKα) was no less than 1000 nM.

Work on `Cn1c(=O)c(C#N)c(N(C)[C@H]2CC[C@H](N(c3ccccc3)C3CC3)CC2)c2nc(Cl)ccc21` [Example 3C, trans-6-Chloro-4-((4-(cyclopropyl(phenyl)amino)cyclohexyl)(methyl)amino)-1-methyl-2-oxo-1,2-dihydro-1,5-naphthyridine-3-carbonitrile] yielded an IC50 (DGKζ) of no less than 1000 nM and an IC50 (DGKα) of 10 to 100 nM.

Work on `Cn1c(=O)c(C#N)c(N(C)[C@H]2CC[C@@H](N(c3ccc(F)cc3F)C3CC3)CC2)c2nc(Cl)ccc21` [Example 3CC, cis-6-Chloro-4-[[4-(N-cyclopropyl-2,4-difluoro-anilino)cyclohexyl]-methyl-amino]-1-methyl-2-oxo-1,5-naphthyridine-3-carbonitrile] yielded an IC50 (DGKζ) of no less than 1000 nM and an IC50 (DGKα) of 100 to 1000 nM.

In the case of `Cn1c(=O)c(C#N)c(N(C)[C@H]2CC[C@H](N(c3ccccc3O)C3CC3)CC2)c2nc(Cl)ccc21` [Example 3D, 6-Chloro-4-((trans-4-(cyclopropyl(2-hydroxyphenyl)amino)cyclohexyl)(methyl)amino)-1-methyl-2-oxo-1,2-dihydro-1,5-naphthyridine-3-carbonitrile], the IC50 (DGKζ) is reported as 100 to 1000 nM and the IC50 (DGKα) is reported as 10 to 100 nM.

With `COc1ccc(N(C2CC2)[C@H]2CC[C@H](N(C)c3c(C#N)c(=O)n(C)c4ccc(Cl)nc34)CC2)cc1` [Example 3E, trans-6-chloro-4-((4-(cyclopropyl(4-methoxyphenyl)amino)cyclohexyl)(methyl)amino)-1-methyl-2-oxo-1,2-dihydro-1,5-naphthyridine-3-carbonitrile] the IC50 (DGKζ) was no less than 1000 nM and the IC50 (DGKα) was 10 to 100 nM.

Compound `Cn1c(=O)c(C#N)c(N(C)[C@H]2CC[C@H](N(c3ccc(F)cc3)C3CC3)CC2)c2nc(Cl)ccc21` [Example 3F, trans-6-chloro-4-((4-(cyclopropyl(4-fluorophenyl)amino)cyclohexyl) (methyl)amino)-1-methyl-2-oxo-1,2-dihydro-1,5-naphthyridine-3-carbonitrile] has an IC50 (DGKζ) of 100 to 1000 nM and an IC50 (DGKα) of 10 to 100 nM.

`Cn1c(=O)c(C#N)c(N(C)[C@H]2CC[C@H](N(c3ccc(F)cc3O)C3CC3)CC2)c2nc(Cl)ccc21` [Example 3G, trans-6-chloro-4-((4-(cyclopropyl(4-fluoro-2-hydroxyphenyl)amino)cyclohexyl)(methyl)amino)-1-methyl-2-oxo-1,2-dihydro-1,5-naphthyridine-3-carbonitrile] was tested, and the IC50 (DGKζ) was no less than 1000 nM and the IC50 (DGKα) was 10 to 100 nM.

For `COc1cc(F)ccc1N(C1CC1)[C@H]1CC[C@@H](N(C)c2c(C#N)c(=O)n(C)c3ccc(Cl)nc23)CC1` [Example 3H, cis-6-chloro-4-((4-(cyclopropyl(4-fluoro-2-methoxyphenyl)amino)cyclohexyl)(methyl)amino)-1-methyl-2-oxo-1,2-dihydro-1,5-naphthyridine-3-carbonitrile], the IC50 (DGKζ) was 10 to 100 nM and the IC50 (DGKα) was 100 to 1000 nM.

Work on `Cn1c(=O)c(C#N)c(N(C)[C@H]2CC[C@H](N(c3ccc(F)cn3)C3CC3)CC2)c2nc(Cl)ccc21` [Example 3I] yielded an IC50 (DGKζ) of 100 to 1000 nM and an IC50 (DGKα) of 10 to 100 nM.

Compound `COc1ccc(N(C2CC2)[C@H]2CC[C@H](N(C)c3c(C#N)c(=O)n(C)c4ccc(Cl)nc34)CC2)nc1` [Example 3J, trans-6-chloro-4-((4-(cyclopropyl(5-methoxypyridin-2-yl)amino)cyclohexyl)(methyl)amino)-1-methyl-2-oxo-1,2-dihydro-1,5-naphthyridine-3-carbonitrile] has an IC50 (DGKζ) of 100 to 1000 nM and an IC50 (DGKα) of 10 to 100 nM.

In the case of `Cn1c(=O)c(C#N)c(N(C)[C@H]2CC[C@H](N(CC3CC3)c3ccc(F)cn3)CC2)c2nc(Cl)ccc21` [Example 3L, trans-6-chloro-4-((4-((cyclopropylmethyl)(5-fluoropyridin-2-yl)amino)cyclohexyl)(methyl)amino)-1-methyl-2-oxo-1,2-dihydro-1,5-naphthyridine-3-carbonitrile], the IC50 (DGKζ) is reported as 100 to 1000 nM and the IC50 (DGKα) is reported as 10 to 100 nM.

Work on `Cn1c(=O)c(C#N)c(N(C)[C@H]2CC[C@@H](N(CC3COC3)c3ccc(F)cc3)CC2)c2nc(Cl)ccc21` [Example 3M, cis-6-Chloro-4-[[4-(N-4-fluorophenyl-N-oxetan-3-ylmethylanilino)cyclohexyl]-methylamino]-1-methyl-2-oxo-1,2-dihydro-1,5-naphthyridine-3-carbonitrile] yielded an IC50 (DGKζ) of 100 to 1000 nM and an IC50 (DGKα) of 10 to 100 nM.

In the case of `Cn1c(=O)c(C#N)c(N(C)[C@H]2CC[C@H](N(CC3COC3)c3ccc(F)cc3)CC2)c2nc(Cl)ccc21` [Example 3N, trans-6-Chloro-4-[[4-(N-4-fluorophenyl-N-oxetan-3-ylmethylanilino)cyclohexyl]-methylamino]-1-methyl-2-oxo-1,2-dihydro-1,5-naphthyridine-3-carbonitrile], the IC50 (DGKζ) is reported as no less than 1000 nM and the IC50 (DGKα) is reported as 10 to 100 nM.

Compound `Cn1c(=O)c(C#N)c(N(C)[C@H]2CC[C@H](N(CC3COC3)c3ccc(F)cc3O)CC2)c2nc(Cl)ccc21` [Example 3O, trans-6-chloro-4-((4-((4-fluoro-2-hydroxyphenyl)(oxetan-3-ylmethyl)amino)cyclohexyl)(methyl)amino)-1-methyl-2-oxo-1,2-dihydro-1,5-naphthyridine-3-carbonitrile] has an IC50 (DGKζ) of no less than 1000 nM and an IC50 (DGKα) of 100 to 1000 nM.

`Cn1c(=O)cc(N[C@H]2CC[C@@H](N(CC3COC3)c3ccccc3)CC2)c2nc(C#N)ccc21` [Example 3Q, cis-5-Methyl-8-((4-((oxetan-3-ylmethyl)(phenyl)amino)cyclohexyl)amino)-6-oxo-5,6-dihydro-1,5-naphthyridine-2-carbonitrile] gave an IC50 (DGKζ) of no less than 1000 nM and an IC50 (DGKα) of 100 to 1000 nM.

In the case of `Cn1c(=O)cc(N[C@H]2CC[C@H](N(CC3CC3)c3ccc(F)cc3)CC2)c2nc(C#N)ccc21` [Example 3R, trans-8-((4-((Cyclopropylmethyl)(4-fluorophenyl)amino)cyclohexyl)amino)-5-methyl-6-oxo-5,6-dihydro-1,5-naphthyridine-2-carbonitrile], the IC50 (DGKζ) is reported as no less than 1000 nM and the IC50 (DGKα) is reported as 10 to 100 nM.

In the case of `Cn1c(=O)cc(N(C)[C@H]2CC[C@H](N(c3ccccc3)C3CC3)CC2)c2nc(C#N)ccc21` [Example 3T, trans-8-((4-(cyclopropyl(phenyl)amino)cyclohexyl)(methyl)amino)-5-methyl-6-oxo-5,6-dihydro-1,5-naphthyridine-2-carbonitrile], the IC50 (DGKζ) is reported as 100 to 1000 nM and the IC50 (DGKα) is reported as 100 to 1000 nM.

Work on `COc1cc(F)ccc1N(C1CC1)[C@H]1CC[C@H](N(C)c2cc(=O)n(C)c3ccc(C#N)nc23)CC1` [Example 3V] yielded an IC50 (DGKζ) of 100 to 1000 nM and an IC50 (DGKα) of no less than 1000 nM.

`COc1cc(F)ccc1N(C1CC1)[C@H]1CC[C@@H](N(C)c2cc(=O)n(C)c3ccc(C#N)nc23)CC1` [Example 3W, cis-8-[[4-(N-Cyclopropyl-4-fluoro-2-methoxy-anilino)cyclohexyl]-methyl-amino]-5-methyl-6-oxo-1,5-naphthyridine-2-carbonitrile] gave an IC50 (DGKζ) of 100 to 1000 nM and an IC50 (DGKα) of 100 to 1000 nM.

In the case of `Cn1c(=O)cc(N(C)[C@H]2CC[C@H](N(c3ccc(F)cc3O)C3CC3)CC2)c2nc(C#N)ccc21` [Example 3X, trans-8-((4-(cyclopropyl(4-fluoro-2-hydroxyphenyl)amino)cyclohexyl)(methyl)amino)-5-methyl-6-oxo-5,6-dihydro-1,5-naphthyridine-2-carbonitrile], the IC50 (DGKζ) is reported as no less than 1000 nM and the IC50 (DGKα) is reported as 100 to 1000 nM.
